Patent US12508260B2, “Combination treatments” (Celex Oncology Innovations Limited, priority 2019, dated 2025)
Like-named read-outs stand apart in the source and are kept apart here.

Tests used:
MDA-MB-231 cells [1] = assay: Matrigel invasion assay, MDA-MB-231 cells; type: cell-based, human
MDA-MB-468 cells [2] = assay: Matrigel invasion assay, MDA-MB-468 cells; type: cell-based, human; conditions: hypoxia, FIG. 8
MDA-MB-231 cells [3] = assay: Cell viability, trypan blue dye exclusion, MDA-MB-231; type: cell-based, human; conditions: normoxia or hypoxia, 48 h
Description: (§1) Cell viability was determined with the use of trypan blue dye exclusion assay. The assay was undertaken both in normoxic and hypoxic conditions. Upon completion of the treatment period, the media was aspirated and replaced with 0.2 mL of 0.4% trypan blue (Sigma-Aldrich) and 0.8 mL of DMEM media. The dish was mixed and incubated for 10 min in the humidified chamber. The trypan blue solution was replaced with 1 mL of DMEM and the dishes were observed under an inverted microscope (ID 03, Zeiss) at 100× magnification under phase contrast. The MTT assay was used to assess cell metabolic activity by determining the level of NAD (P) H-dependent cellular oxidoreductase enzymes. Cells were seeded in 24 well plates (Becton Dickinson, Oxford, UK) at 2×10^4 cells/well and were allowed to settle overnight before treatment. During the treatment, 500 μL of solution was added to each well and the assays were undertaken in both normoxic and hypoxic conditions. Upon treatment completion, 400 μL of DMEM and 100 μL of MTT was added into each well. […] The plates were rocked at 150 cycles/min for 5 min to mix the formazan with DMSO and the resulting formazan absorbance was measured at 570 nm with a multi-plate reader (ELX800 Universal Microplate Reader, Bio-Tek Instruments, UK). Two measurements for each result were recorded with a 5 min interval and the average was calculated.

MDA-MB-468 cells [4] = assay: Cell viability, trypan blue dye exclusion, MDA-MB-468; type: cell-based, human; conditions: normoxia or hypoxia, 48 h
Description: as §1

nNav1.5 protein = assay: Immunocytochemistry of nNav1.5 protein expression in MDA-MB-231 cells; type: cell-based, human; conditions: hypoxia
Description: Cells were first seeded in 35×10 mm dishes (Becton Dickinson) at 5×10^5 cell/dish and left to settle overnight. The cells were pre-treated with treatment solutions for 32 h. The assay was only performed under hypoxia conditions. Before seeding the cells, 13 mm coverslips were placed in 24 well plates and 500 μL poly-L-lysine (Sigma) was added to each well for 20 min. After the period of pre-treatments, cells were trypsinized and seeded at 2×10^4 cells/coverslip in 500 μL of their respective treatment solutions. The plates were incubated under hypoxic condition and the assay was allowed for 16 h. At least two coverslips were prepared for each experiment. Upon assay completion, the coverslips were washed with phosphate buffered saline (PBS) before being fixed with 500 μL of 4% paraformaldehyde (Sigma) diluted in PBS. Fixation was for 10 min at room temperature on an orbital shaker. Coverslips were then washed 3×5 min in PBS. One of the coverslips for each condition was permeabilised with 500 μL 0.1% saponin/PBS solution (Sigma) for 4 min and 3×5 min of PBS washes followed. Permeabilised and non-permeabilised coverslips were all were treated with 500 μL 5% bovine serum albumin (BSA)/PBS (pH 7.4, v/v; Dako, Cambridge, UK) blocking agent for 1 h. Coverslips were transferred from the 24 well plate to a humidity chamber and were incubated with 100 μL of the primary antibody (NESOpAb) at a 1:200 dilution of the 0.7 mg/mL stock on an orbital shaker overnight at 3-5° C. The primary antibody used was NESOpAb which can specifically recognize and bind an external epitope sequence of the neonatal isoform of Nav1.5 […] et al., 2005). Coverslips were then rinsed with 3×5 min PBS and incubated with 100 μL of the secondary antibody, goat anti-rabbit IgG Alexa Fluor® 568, at a 1:100 concentration (Dako) for 1 h in darkness at room temperature. Coverslips for negative controls (which were incubated with secondary antibody only) were also prepared to check the specificity of the primary antibody. Coverslips were then rinsed with 3×5 min PBS+0.1% BSA and dipped in distilled water before being mounted on glass slides using mounting medium (Dako) and stored in darkness at 3-5° C. Images were taken with a Canon® digital camera inserted into an Axioimager immunofluorescence and phase contrast inverted microscope (Zeiss) and processed with Remote Capture Software® (Canon). ImageJ was used to analyse and quantify the corrected total cell florescence.

VGSC = target: T1, VGSC (Homo sapiens, UniProt Q14524, S234P/V215L); assay: Whole-cell patch clamp of VGSC current in MDA-MB-231 cells; type: cell-based
T1 construct: minoxidil on the VGSC activity in MDA-MB-231 cells; endogenous in cells; host or cells: MDA-MB-231 (human breast cancer cell line)
Description: Whole-cell patch clamp recordings are performed on cells under superfusion with mammalian physiological saline (MPS). Details of whole-cell recordings have been described previously (Fraser et al., 2003, 2005; Grimes et al., 1995; Laniado et al., 1997). In brief, MPS contains (in mM): 144 NaCl, 5.4 KCl, 1 MgCl2, 2.5 CaCl2), 5 HEPES and 5.6 D-glucose (adjusted to pH 7.3 with NaOH). Patch pipettes (tip resistances, ˜5 MΩ) are filled with a solution designed to block the outward K^+ currents (in mM): NaCl 5, CsCl 145, MgCl2 2, CaCl2) 1, HEPES 10 and EGTA 11, adjusted to pH 7.4 with 1 M CsOH. The estimated intracellular free Ca^2+ concentration is ˜15 nM (Laniado et al., 2001). A holding potential of −100 mV is applied. Standard voltage-clamp protocols are used to study the electrophysiological properties of the VGSC currents. Mainly the following characteristics are studied: peak current (and its density), current-voltage relationship (current normalized to peak), steady-state inactivation/“availability”=test current (I)/maximum current (Imax); recovery from inactivation=test current (It)/control current (Ic). For accurate determination of the acute effect of minoxidil on peak current block, only currents larger than 200 pA are used. Further details of the voltage-clamp protocols, data analysis and curve fitting have been published earlier (Onkal et al., 2008).

[5] = 50 μM minoxidil, short-term (acute) application, FIG. 11

## NC1=N[C@H](O)[C@H]2[C@H]3O[C@]4(O)O[C@@H]([C@@H](O)[C@@]2(N1)[C@@H]4O)[C@]3(O)CO [TTX, Tetrodotoxin]
MDA-MB-231 cells [1]
  effect on invasiveness (normalized to control): slight effect but this is not significant

## COc1ccccc1OCC(O)CN1CCN(CC(=O)Nc2c(C)cccc2C)CC1 (stereo not shown) [ranolazine, N-(2,6-Dimethylphenyl)-4-[2-hydroxy-3-(2-methoxyphenoxy)propyl]-1-piperazineacetamide]
MDA-MB-231 cells [1]; 0.625 μM ranolazine, hypoxia, FIG. 6c
  reduction of cell invasion: 24%
MDA-MB-231 cells [1]; 1.25 μM ranolazine, hypoxia, FIG. 6b
  reduction of cell invasion: 32%
MDA-MB-231 cells [1]; 2.5 μM ranolazine, hypoxia, FIG. 6a
  reduction of cell invasion: 36%
MDA-MB-231 cells [1]; 2.5 μM ranolazine, hypoxia, FIG. 7a
  reduction of cell invasion: 30%
MDA-MB-231 cells [1]; 2.5 μM ranolazine, normoxia, FIG. 7b
  effect on cell invasion: no effect
MDA-MB-231 cells [1]; 5 μM ranolazine, hypoxia, FIG. 5a
  reduction of cell invasion: 42%
MDA-MB-231 cells [1]; 5 μM ranolazine, hypoxia, set with 2.5 μM minoxidil (FIG. 4b/5b)
  reduction of cell invasion: 43%
MDA-MB-468 cells [2]; 2.5 μM ranolazine
  reduction of cell invasion: 33%
MDA-MB-231 cells [3]; 5 μM ranolazine
  effect on cell viability: no effect
MDA-MB-468 cells [4]; 5 μM ranolazine
  effect on cell viability: no effect
nNav1.5 protein; 5 μM ranolazine, non-permeabilized cells (plasma membrane), FIG. 9a
  reduction of nNav1.5 protein expression: 30%
nNav1.5 protein; 5 μM ranolazine, permeabilized cells (total), FIG. 9b
  reduction of nNav1.5 protein expression: 43%
VGSC; ranolazine at the concentrations used in the Examples (<<10 µM), FIG. 2
  effect on the transient ('peak') component of VGSC current: hardly any effect

## Nc1cc(N2CCCCC2)nc(N)[n+]1[O-] [minoxidil, 6-(1-Piperidinyl)pyrimidine-2,4-diamine 3-oxide]
MDA-MB-231 cells [1]; 2.5 μM minoxidil, hypoxia, FIG. 6a
  reduction of cell invasion: 24%
MDA-MB-231 cells [1]; 2.5 μM minoxidil, hypoxia, FIG. 6b
  reduction of cell invasion: 41%
MDA-MB-231 cells [1]; 2.5 μM minoxidil, hypoxia, FIG. 6c
  reduction of cell invasion: 42%
MDA-MB-231 cells [1]; 2.5 μM minoxidil, hypoxia, FIG. 7a
  reduction of cell invasion: 49%
MDA-MB-231 cells [1]; 2.5 μM minoxidil, hypoxia, set with 5 μM ranolazine (FIG. 4b/5b)
  reduction of cell invasion: 48%
MDA-MB-231 cells [1]; 2.5 μM minoxidil, normoxia, FIG. 7b
  reduction of cell invasion: 53%
MDA-MB-231 cells [1]; 5 μM minoxidil, hypoxia, FIG. 5a
  reduction of cell invasion: 56%
MDA-MB-231 cells [1]; 50 μM minoxidil, hypoxia, FIG. 5a
  reduction of cell invasion: 89%
MDA-MB-468 cells [2]; 2.5 μM minoxidil
  reduction of cell invasion: 44%
MDA-MB-231 cells [3]; 50 μM minoxidil
  effect on cell viability: no effect
MDA-MB-468 cells [4]; 50 μM minoxidil
  effect on cell viability: no effect
nNav1.5 protein; 50 μM minoxidil, non-permeabilized cells, FIG. 9a, P=0.58
  effect on nNav1.5 protein expression: neither minoxidil nor the drug combination had a significant effect
nNav1.5 protein; 50 μM minoxidil, permeabilized cells (total), FIG. 9b
  reduction of nNav1.5 protein expression: 49%
VGSC; 50 μM minoxidil, long-term (48 hour) treatment under hypoxia, then washing off, FIG. 12
  effect on VGSC characteristics: no change
VGSC; [5]
  effect on peak current: no effect
  effect on steady-state inactivation: shifted the steady-state inactivation to more hyperpolarised potentials

## COc1cc2ncnc(Nc3cccc(Cl)c3)c2cc1OC [AG1478, N-(3-chlorophenyl)-6,7-dimethoxy-4-quinazolinamine]
MDA-MB-231 cells [1]; 10 μM AG1478, normoxia, FIG. 10
  effect on invasiveness (normalized to control): significant inhibitory effect
